From article PMC5218480 (PLoS ONE, 2017)

System: MV-4-11 cells
Experiment: Gene expression microarray analysis (Affymetrix PrimeView) and GSEA
Format: cell-based, human
Design: RFU PODN (11730768_x_at) / Fold change /veh PODN (11730768_x_at) / RFU LINC00158 (11744669_a_at) / Fold change /veh LINC00158 (11744669_a_at) / RFU DUSP10 (11751237_a_at) / Fold change /veh DUSP10 (11751237_a_at) / RFU ID3 (11757404_x_at) / Fold change /veh ID3 (11757404_x_at) / RFU PLEKHG5 (11737974_s_at) / Fold change /veh PLEKHG5 (11737974_s_at) / RFU LRRC4B (11730491_at) / Fold change /veh LRRC4B (11730491_at) / RFU GIMAP4 (11747438_a_at) / Fold change /veh GIMAP4 (11747438_a_at) / RFU KRT8 (11758183_x_at) / Fold change /veh KRT8 (11758183_x_at) / RFU CNN1 (11734310_a_at) / Fold change /veh CNN1 (11734310_a_at) / RFU VPS37D (11726825_at) / Fold change /veh VPS37D (11726825_at) / RFU C10orf10 (11716522_x_at) / Fold change /veh C10orf10 (11716522_x_at) / RFU KIR2DL2 /// KIR2DL4 /// KIR2DL5A /// KIR2DL5B /// KIR2DS1 /// KIR2DS2 /// KIR2DS3 /// KIR2DS4 /// KIR3DL3 /// KIR3DL3 /// KIR3DS1 (11738374_at) / Fold change /veh KIR2DL2 /// KIR2DL4 /// KIR2DL5A /// KIR2DL5B /// KIR2DS1 /// KIR2DS2 /// KIR2DS3 /// KIR2DS4 /// KIR3DL3 /// KIR3DL3 /// KIR3DS1 (11738374_at) / RFU C1QL1 (11718748_at) / Fold change /veh C1QL1 (11718748_at) / RFU TMPRSS4 (11747572_a_at) / Fold change /veh TMPRSS4 (11747572_a_at) / RFU HAMP (11756126_x_at) / Fold change /veh HAMP (11756126_x_at) / RFU RNFT2 (11725882_a_at) / Fold change /veh RNFT2 (11725882_a_at) / RFU NR4A2 (11747474_a_at) / Fold change /veh NR4A2 (11747474_a_at) / RFU ABCC12 (11746883_a_at) / Fold change /veh ABCC12 (11746883_a_at) / RFU TMEM136 (11760407_x_at) / Fold change /veh TMEM136 (11760407_x_at) / RFU CLDN22 /// WWC2 (11732394_at) / Fold change /veh CLDN22 /// WWC2 (11732394_at) / RFU HLA-DPB1 (11760878_x_at) / Fold change /veh HLA-DPB1 (11760878_x_at) / RFU SPINT1 (11716480_a_at) / Fold change /veh SPINT1 (11716480_a_at) / RFU GAP43 (11754022_s_at) / Fold change /veh GAP43 (11754022_s_at) / RFU A4GNT (11735810_at) / Fold change /veh A4GNT (11735810_at) / RFU PRB3 (11715151_x_at) / Fold change /veh PRB3 (11715151_x_at) / RFU TUBB4B (11761932_at) / Fold change /veh TUBB4B (11761932_at) / RFU CAPN14 (11732068_a_at) / Fold change /veh CAPN14 (11732068_a_at) / RFU TMCC2 (11721928_a_at) / Fold change /veh TMCC2 (11721928_a_at) / RFU IRGQ (11745062_a_at) / Fold change /veh IRGQ (11745062_a_at) / RFU FAM174B (11720279_a_at) / Fold change /veh FAM174B (11720279_a_at) / RFU TMPRSS4 (11748680_a_at) / Fold change /veh TMPRSS4 (11748680_a_at) / RFU FAM212B (11763350_a_at) / Fold change /veh FAM212B (11763350_a_at) / RFU PLEKHG5 (11743358_a_at) / Fold change /veh PLEKHG5 (11743358_a_at) / RFU ZSCAN30 (11745921_a_at) / Fold change /veh ZSCAN30 (11745921_a_at) / RFU CMKLR1 (11741424_a_at) / Fold change /veh CMKLR1 (11741424_a_at) / RFU LOC101060620 /// MAPK8IP1 (11723275_at) / Fold change /veh LOC101060620 /// MAPK8IP1 (11723275_at) / RFU SPTSSB (11747773_x_at) / Fold change /veh SPTSSB (11747773_x_at) / RFU PRSS12 (11739890_at) / Fold change /veh PRSS12 (11739890_at) / RFU BIN1 (11741810_x_at) / Fold change /veh BIN1 (11741810_x_at) / RFU WNT11 (11732464_a_at) / Fold change /veh WNT11 (11732464_a_at) / RFU C10orf10 (11716521_a_at) / Fold change /veh C10orf10 (11716521_a_at) / RFU C5orf56 (11738089_at) / Fold change /veh C5orf56 (11738089_at) / RFU CYB561 (11721691_x_at) / Fold change /veh CYB561 (11721691_x_at) / RFU ANKRD19P (11752326_a_at) / Fold change /veh ANKRD19P (11752326_a_at) / RFU OR2T12 /// OR2T33 /// OR2T8 (11738714_s_at) / Fold change /veh OR2T12 /// OR2T33 /// OR2T8 (11738714_s_at) / RFU VCAN (11748164_a_at) / Fold change /veh VCAN (11748164_a_at) / RFU JSRP1 (11732532_at) / Fold change /veh JSRP1 (11732532_at) / RFU KRTAP10-11 (11738290_x_at) / Fold change /veh KRTAP10-11 (11738290_x_at) / RFU MYO3A (11730013_a_at) / Fold change /veh MYO3A (11730013_a_at) / RFU EBF3 (11725865_a_at) / Fold change /veh EBF3 (11725865_a_at) / RFU CAMK2N1 (11719241_x_at) / Fold change /veh CAMK2N1 (11719241_x_at) / RFU C5orf56 (11738088_a_at) / Fold change /veh C5orf56 (11738088_a_at) / RFU OLFML3 (11715873_a_at) / Fold change /veh OLFML3 (11715873_a_at) / RFU LOC100653217 /// NTM (11731650_a_at) / Fold change /veh LOC100653217 /// NTM (11731650_a_at) / RFU MAPK11 (11762145_a_at) / Fold change /veh MAPK11 (11762145_a_at) / RFU FIZ1 (11724087_x_at) / Fold change /veh FIZ1 (11724087_x_at) / RFU OASL (11726364_x_at) / Fold change /veh OASL (11726364_x_at) / RFU SOX15 (11748057_x_at) / Fold change /veh SOX15 (11748057_x_at) / RFU CD79A (11719716_a_at) / Fold change /veh CD79A (11719716_a_at) / RFU HIST1H1D (11736915_at) / Fold change /veh HIST1H1D (11736915_at) / RFU CASKIN2 (11723855_a_at) / Fold change /veh CASKIN2 (11723855_a_at) / RFU LOC730098 (11760151_x_at) / Fold change /veh LOC730098 (11760151_x_at) / RFU OR4N2 (11742367_at) / Fold change /veh OR4N2 (11742367_at) / RFU PRRT2 (11749266_a_at) / Fold change /veh PRRT2 (11749266_a_at) / RFU SNX32 (11753110_a_at) / Fold change /veh SNX32 (11753110_a_at) / RFU CDHR5 (11726645_a_at) / Fold change /veh CDHR5 (11726645_a_at) / RFU RCAN1 (11760418_a_at) / Fold change /veh RCAN1 (11760418_a_at) / RFU FAM167A (11723789_a_at) / Fold change /veh FAM167A (11723789_a_at) / RFU FAM26E (11764081_at) / Fold change /veh FAM26E (11764081_at) / RFU ISYNA1 (11749810_s_at) / Fold change /veh ISYNA1 (11749810_s_at) / RFU ACY1 (11761880_at) / Fold change /veh ACY1 (11761880_at) / RFU 11764098_at / Fold change /veh 11764098_at / RFU SAMD14 (11745864_x_at) / Fold change /veh SAMD14 (11745864_x_at) / RFU NPB (11741838_a_at) / Fold change /veh NPB (11741838_a_at) / RFU TMPRSS6 (11731388_a_at) / Fold change /veh TMPRSS6 (11731388_a_at) / RFU KRTAP10-2 (11738614_at) / Fold change /veh KRTAP10-2 (11738614_at) / RFU ARHGAP8 /// PRR5-ARHGAP8 (11727945_x_at) / Fold change /veh ARHGAP8 /// PRR5-ARHGAP8 (11727945_x_at) / RFU KRTAP5-7 /// NADSYN1 (11734609_at) / Fold change /veh KRTAP5-7 /// NADSYN1 (11734609_at) / RFU RASL12 (11751679_a_at) / Fold change /veh RASL12 (11751679_a_at) / RFU CDKN2B (11736163_a_at) / Fold change /veh CDKN2B (11736163_a_at) / RFU PRF1 (11729649_at) / Fold change /veh PRF1 (11729649_at) / RFU, ZNF638 /// ZNF638-IT1 / Fold change vs veh, ZNF638 /// ZNF638-IT1 / RFU, PANK3 / Fold change vs veh, PANK3 / RFU, SH3YL1 / Fold change vs veh, SH3YL1 / RFU, ZEB2 / Fold change vs veh, ZEB2 / RFU, NRIP1 / Fold change vs veh, NRIP1 / RFU, PTTG1IP / Fold change vs veh, PTTG1IP / RFU, CAPN2 / Fold change vs veh, CAPN2 / RFU, MED14 / Fold change vs veh, MED14 / RFU, SNORA58 / Fold change vs veh, SNORA58 / RFU, C1orf63 / Fold change vs veh, C1orf63 / RFU, LRRFIP1 / Fold change vs veh, LRRFIP1 / RFU, NDUFAF7 / Fold change vs veh, NDUFAF7 / RFU, SLC12A2 / Fold change vs veh, SLC12A2 / RFU, IBTK / Fold change vs veh, IBTK / RFU, ESF1 / Fold change vs veh, ESF1 / Fold change vs veh, TMEM50B / RFU, TAOK1 / Fold change vs veh, TAOK1 / RFU, ACBD3 / Fold change vs veh, ACBD3 / RFU, TMA16 / Fold change vs veh, TMA16 / RFU, RWDD3 / Fold change vs veh, RWDD3 / RFU, BCAT1 / Fold change vs veh, BCAT1 / RFU, EDEM3 / Fold change vs veh, EDEM3 / RFU, TMEM33 / Fold change vs veh, TMEM33 / RFU, WDR75 / Fold change vs veh, WDR75 / RFU, AHCTF1 / Fold change vs veh, AHCTF1 / RFU, TFRC / Fold change vs veh, TFRC / RFU, ZDHHC17 / Fold change vs veh, ZDHHC17 / RFU, NOM1 / Fold change vs veh, NOM1 / RFU, ARL8B / Fold change vs veh, ARL8B / RFU, ZBTB11 / Fold change vs veh, ZBTB11 / RFU, TAMM41 / Fold change vs veh, TAMM41 / RFU, KIAA1704 /// LOC100996395 / Fold change vs veh, KIAA1704 /// LOC100996395 / RFU, ING1 / Fold change vs veh, ING1 / RFU, TRMT61B / Fold change vs veh, TRMT61B / RFU, FUBP3 / Fold change vs veh, FUBP3 / RFU, TP53 / Fold change vs veh, TP53 / RFU, TNKS2 / Fold change vs veh, TNKS2 / RFU, ZFP14 / Fold change vs veh, ZFP14 / RFU, ACTR2 / Fold change vs veh, ACTR2 / RFU, PPP3R1 / Fold change vs veh, PPP3R1 / RFU, PIK3R1 / Fold change vs veh, PIK3R1 / RFU, HNRNPA1 / Fold change vs veh, HNRNPA1 / RFU, RNF170 / Fold change vs veh, RNF170 / RFU, ZNF28 / Fold change vs veh, ZNF28 / RFU, RNGTT / Fold change vs veh, RNGTT / RFU, OGT / Fold change vs veh, OGT / RFU, BRD1 / Fold change vs veh, BRD1 / RFU, MARS / Fold change vs veh, MARS / RFU, ZNF655 / Fold change vs veh, ZNF655 / RFU, FAHD1 / Fold change vs veh, FAHD1 / RFU, BDP1 / Fold change vs veh, BDP1 / RFU, LRRCC1 / Fold change vs veh, LRRCC1 / RFU, ARID1A / Fold change vs veh, ARID1A / RFU, ZNF146 / Fold change vs veh, ZNF146 / RFU, ZNF330 / Fold change vs veh, ZNF330 / RFU, GPN3 / Fold change vs veh, GPN3 / RFU, C9orf123 / Fold change vs veh, C9orf123 / RFU, N4BP2L2 / Fold change vs veh, N4BP2L2 / RFU, ARFIP1 / Fold change vs veh, ARFIP1 / RFU, FAM179B / Fold change vs veh, FAM179B / RFU, BCL10 / Fold change vs veh, BCL10 / RFU, UHRF1BP1L / Fold change vs veh, UHRF1BP1L / RFU, BET1 / Fold change vs veh, BET1 / RFU, CNOT2 / Fold change vs veh, CNOT2 / RFU, ZNF268 / Fold change vs veh, ZNF268 / Fold change vs veh, ZNF507 / RFU, DGCR2 / Fold change vs veh, DGCR2 / RFU, WDSUB1 / Fold change vs veh, WDSUB1 / Fold change vs veh, HSP90B1 /// MIR3652 / RFU, ADSS / Fold change vs veh, ADSS / RFU, GK / Fold change vs veh, GK / RFU, ZNF148 / Fold change vs veh, ZNF148 / RFU, TAF9 / Fold change vs veh, TAF9 / RFU, SLC1A5 / Fold change vs veh, SLC1A5 / RFU, SLMO2 / Fold change vs veh, SLMO2 / RFU, ABCC4 / Fold change vs veh, ABCC4 / RFU, LOC101060439 /// RAP1B / Fold change vs veh, LOC101060439 /// RAP1B / RFU, RFX7 / Fold change vs veh, RFX7 / RFU, GTPBP10 / Fold change vs veh, GTPBP10 / RFU, CNEP1R1 / Fold change vs veh, CNEP1R1 / RFU, BIVM-ERCC5 /// ERCC5 / Fold change vs veh, BIVM-ERCC5 /// ERCC5 / RFU, ILF3 / Fold change vs veh, ILF3 / RFU 11762660_at / Fold change /veh 11762660_at / RFU VCAN (11757783_s_at) / Fold change /veh VCAN (11757783_s_at) / RFU DDX43 (11728927_at) / Fold change /veh DDX43 (11728927_at) / RFU KRT8 (11758188_x_at) / Fold change /veh KRT8 (11758188_x_at) / RFU NKD1 (11759106_at) / Fold change /veh NKD1 (11759106_at) / RFU SRD5A1 (11742802_a_at) / Fold change /veh SRD5A1 (11742802_a_at) / RFU TPSAB1 /// TPSB2 (11721975_s_at) / Fold change /veh TPSAB1 /// TPSB2 (11721975_s_at) / RFU GSTM3 (11746129_a_at) / Fold change /veh GSTM3 (11746129_a_at) / RFU IL23R (11737362_x_at) / Fold change /veh IL23R (11737362_x_at) / RFU TMEM51 (11727254_a_at) / Fold change /veh TMEM51 (11727254_a_at) / RFU PIWIL2 (11732686_x_at) / Fold change /veh PIWIL2 (11732686_x_at) / RFU ORM1 (11744905_x_at) / Fold change /veh ORM1 (11744905_x_at) / RFU CCDC152 (11743942_at) / Fold change /veh CCDC152 (11743942_at) / RFU ECM1 (11717891_a_at) / Fold change /veh ECM1 (11717891_a_at) / RFU IL23R (11748794_a_at) / Fold change /veh IL23R (11748794_a_at) / RFU TNFAIP8L3 (11732012_x_at) / Fold change /veh TNFAIP8L3 (11732012_x_at) / RFU MBOAT4 (11741988_at) / Fold change /veh MBOAT4 (11741988_at) / RFU 11764193_at / Fold change /veh 11764193_at / RFU TMEM53 (11763286_at) / Fold change /veh TMEM53 (11763286_at) / RFU MAGEB2 (11727129_at) / Fold change /veh MAGEB2 (11727129_at) / RFU TMEM200A (11744735_a_at) / Fold change /veh TMEM200A (11744735_a_at) / RFU CCDC152 (11751479_a_at) / Fold change /veh CCDC152 (11751479_a_at) / RFU FAM211A (11726209_a_at) / Fold change /veh FAM211A (11726209_a_at) / RFU RGS16 (11746705_a_at) / Fold change /veh RGS16 (11746705_a_at) / RFU VCAN (11755009_s_at) / Fold change /veh VCAN (11755009_s_at) / RFU RHOB (11743442_s_at) / Fold change /veh RHOB (11743442_s_at) / RFU RGS16 (11720943_a_at) / Fold change /veh RGS16 (11720943_a_at) / RFU RGS16 (11720944_at) / Fold change /veh RGS16 (11720944_at) / RFU, VPS4B / Fold change vs veh, VPS4B / RFU, CREB1 / Fold change vs veh, CREB1 / RFU, DNAJC13 / Fold change vs veh, DNAJC13 / RFU, GNAQ / Fold change vs veh, GNAQ / RFU, CDK5R1 / Fold change vs veh, CDK5R1 / RFU, ZRANB3 / Fold change vs veh, ZRANB3 / RFU, CUL4A / Fold change vs veh, CUL4A / RFU, CCNY / Fold change vs veh, CCNY / RFU, UFL1 / Fold change vs veh, UFL1 / RFU, COG3 / Fold change vs veh, COG3 / RFU, DIAPH2 / Fold change vs veh, DIAPH2 / RFU, SKA2 / Fold change vs veh, SKA2 / RFU, AFF3 / Fold change vs veh, AFF3 / RFU, LMF1 / Fold change vs veh, LMF1 / RFU, IPO11 / Fold change vs veh, IPO11 / RFU, DFFB / Fold change vs veh, DFFB / RFU, FOXP1 / Fold change vs veh, FOXP1 / RFU, CARD8 / Fold change vs veh, CARD8 / RFU, STRN3 / Fold change vs veh, STRN3 / RFU, ADK / Fold change vs veh, ADK / RFU, RASSF2 / Fold change vs veh, RASSF2 / RFU, WIPF1 / Fold change vs veh, WIPF1 / RFU, LARP1B / Fold change vs veh, LARP1B / RFU, RASA1 / Fold change vs veh, RASA1 / RFU, RB1 / Fold change vs veh, RB1 / RFU, PPFIA1 / Fold change vs veh, PPFIA1 / RFU, MAT2A / Fold change vs veh, MAT2A / RFU, CCT5 / Fold change vs veh, CCT5 / RFU, WDR92 / Fold change vs veh, WDR92 / RFU, CUX1 / Fold change vs veh, CUX1 / RFU, TTC7A / Fold change vs veh, TTC7A / RFU, TMEM135 / Fold change vs veh, TMEM135 / RFU, DEPTOR / Fold change vs veh, DEPTOR / RFU, CPM / Fold change vs veh, CPM / RFU, DNAJB6 / Fold change vs veh, DNAJB6 / RFU, CACNA2D3 / Fold change vs veh, CACNA2D3 / RFU, DTX4 / Fold change vs veh, DTX4 / RFU, TFCP2 / Fold change vs veh, TFCP2 / RFU, GMCL1 /// GMCL1P1 / Fold change vs veh, GMCL1 /// GMCL1P1 / RFU, AEBP2 / Fold change vs veh, AEBP2 / RFU, SNHG1 /// SNORD22 /// SNORD25 /// SNORD26 /// SNORD27 /// SNORD28 /// SNORD29 /// SNORD31 / Fold change vs veh, SNHG1 /// SNORD22 /// SNORD25 /// SNORD26 /// SNORD27 /// SNORD28 /// SNORD29 /// SNORD31 / Fold change (Aza/veh), C12orf56 (ProbeSet 11735607_a_at) / Fold change (ACY-1035/veh), C12orf56 (ProbeSet 11735607_a_at) / Fold change (Aza/veh), FGFR1OP (ProbeSet 11751329_s_at) / Fold change (ACY-1035/veh), FGFR1OP (ProbeSet 11751329_s_at) / Fold change (Aza/veh), VPS36 (ProbeSet 11739960_a_at) / Fold change (ACY-1035/veh), VPS36 (ProbeSet 11739960_a_at) / RFU SYPL1 (11715823_x_at) / Fold change /veh SYPL1 (11715823_x_at) / RFU IGFBP7 (11715501_s_at) / Fold change /veh IGFBP7 (11715501_s_at) / RFU REEP3 (11722064_at) / Fold change /veh REEP3 (11722064_at) / RFU IGLL1 (11728026_x_at) / Fold change /veh IGLL1 (11728026_x_at): dose or concentration left out as unconfirmed
Settings: ProbeSet 11745789_a_at; LIST D

## Nc1ccc(-c2cccs2)cc1NC(=O)c1ccc2c(c1)cc(C1CC1)n2CCN1CCOCC1 [ACY-1035]
  Fold change vs veh, TMEM135: 0.97
